Test results taken from patent publication US4336375A, “Cephalosporanic acid derivatives” (American Cyanamid Company, priority 1980, dated 1982).
In brackets after ≈: the same amount, converted by molar mass. Where two headings read alike, the source gives them in different places.

Assays:
Format in all cases: cell-based
Serratia marcens K77-1 = experiment: In vitro MIC, agar dilution, Serratia marcens K77-1; conditions: K771; Serratia marcens K77-1; agar dilution, 35° C., 18 hours, nutrient agar; read-out: Minimal Inhibitory Concentration
Description: (§1) The in vitro activity of representative compounds of the present invention are given in the following Table I in terms of minimal inhibitory concentration. The test used was the standard agar dilution test using a Steers multiple inocula replicator and incubating at 35° C. for 18 hours in conventional nutrient agar.

[1] = tested on: Pseudomonas aeruginosa PD05141; experiment: In vitro MIC, agar dilution, Pseudomonas aeruginosa PD05141; conditions: Pseudomonas aeruginosa PD05141; agar dilution, 35° C., 18 hours, nutrient agar; read-out: Minimal Inhibitory Concentration
Description: as §1

[2] = tested on: Enterobacter cloacae MA75-1; experiment: In vitro MIC, agar dilution, Enterobacter cloacae MA75-1; conditions: read-out: Minimal Inhibitory Concentration
Description: as §1

[3] = tested on: Escherichia coli ESS22-31; experiment: In vitro MIC, agar dilution, Escherichia coli ESS22-31; conditions: read-out: Minimal Inhibitory Concentration
Description: as §1

[4] = tested on: Enterobacter cloacae OSU75-2; experiment: In vitro MIC, agar dilution, Enterobacter cloacae OSU75-2; conditions: OSU752; Enterobacter cloacae OSU75-2; agar dilution, 35° C., 18 hours, nutrient agar; read-out: Minimal Inhibitory Concentration
Description: as §1

Enterococcus SM77-15 = experiment: In vitro MIC, agar dilution, Enterococcus SM77-15; conditions: SM7715; Enterococcus SM77-15; agar dilution, 35° C., 18 hours, nutrient agar; read-out: Minimal Inhibitory Concentration
Description: as §1

Escherichia coli 311 = experiment: In vitro MIC, agar dilution, Escherichia coli 311; conditions: 35° C., 18 hours, nutrient agar, read-out: Minimal Inhibitory Concentration
Description: as §1

Proteus rettgeri N76-1 = experiment: In vitro MIC, agar dilution, Proteus rettgeri N76-1; conditions: Providencia rettgeri, N761; Proteus rettgeri N76-1; agar dilution, 35° C., 18 hours, nutrient agar; read-out: Minimal Inhibitory Concentration
Description: as §1

[5] = tested on: Klebsiella pneumoniae W75-2; experiment: In vitro MIC, agar dilution, Klebsiella pneumoniae W75-2; conditions: W752; Klebsiella pneumoniae W75-2; agar dilution, 35° C., 18 hours, nutrient agar; read-out: Minimal Inhibitory Concentration
Description: as §1

[6] = tested on: Staphylococcus aureus Q74-1; experiment: In vitro MIC, agar dilution, Staphylococcus aureus Q74-1; conditions: Q741; Staphylococcus aureus Q74-1; agar dilution, 35° C., 18 hours, nutrient agar; read-out: Minimal Inhibitory Concentration
Description: as §1

[7] = tested on: Pseudomonas aeruginosa 12-4-4; experiment: In vitro MIC, agar dilution, Pseudomonas aeruginosa 12-4-4; conditions: 1244; Pseudomonas aeruginosa 12-4-4; agar dilution, 35° C., 18 hours, nutrient agar; read-out: Minimal Inhibitory Concentration
Description: as §1

Klebsiella pneumoniae AD = experiment: In vitro MIC, agar dilution, Klebsiella pneumoniae AD; conditions: Klebsiella pneumoniae AD; agar dilution, 35° C., 18 hours, nutrient agar; read-out: Minimal Inhibitory Concentration
Description: as §1

[8] = tested on: Klebsiella pneumoniae MA75-1; experiment: In vitro MIC, agar dilution, Klebsiella pneumoniae MA75-1; conditions: MA751; Klebsiella pneumoniae MA75-1; agar dilution, 35° C., 18 hours, nutrient agar; read-out: Minimal Inhibitory Concentration
Description: as §1

[9] = tested on: Enterobacter aerogenes UR76-3; experiment: In vitro MIC, agar dilution, Enterobacter aerogenes UR76-3; conditions: Klebsiella aerogenes, UR763; Enterobacter aerogenes UR76-3; agar dilution, 35° C., 18 hours, nutrient agar; read-out: Minimal Inhibitory Concentration
Description: as §1

Proteus vulgaris N74-1 = experiment: In vitro MIC, agar dilution, Proteus vulgaris N74-1; conditions: N741, 35° C., 18 hours, nutrient agar, read-out: Minimal Inhibitory Concentration
Description: as §1

Escherichia coli W75-1 = experiment: In vitro MIC, agar dilution, Escherichia coli W75-1; conditions: W751, 35° C., 18 hours, nutrient agar, read-out: Minimal Inhibitory Concentration
Description: as §1

Serratia marcens QHC77-2 = experiment: In vitro MIC, agar dilution, Serratia marcens QHC77-2; conditions: QHC772; Serratia marcens QHC77-2; agar dilution, 35° C., 18 hours, nutrient agar; read-out: Minimal Inhibitory Concentration
Description: as §1

Proteus morganii K72 = experiment: In vitro MIC, agar dilution, Proteus morganii K72; conditions: Morganella morganii; Proteus morganii K72; agar dilution, 35° C., 18 hours, nutrient agar; read-out: Minimal Inhibitory Concentration
Description: as §1

[10] = tested on: Staphylococcus aureus Q74-6; experiment: In vitro MIC, agar dilution, Staphylococcus aureus Q74-6; conditions: Q746; Staphylococcus aureus Q74-6; agar dilution, 35° C., 18 hours, nutrient agar; read-out: Minimal Inhibitory Concentration
Description: as §1

[11] = tested on: Pseudomonas aeruginosa G236; experiment: In vitro MIC, agar dilution, Pseudomonas aeruginosa G236; conditions: read-out: Minimal Inhibitory Concentration
Description: as §1

Escherichia coli OSU75-1 = experiment: In vitro MIC, agar dilution, Escherichia coli OSU75-1; conditions: OSU751, 35° C., 18 hours, nutrient agar, read-out: Minimal Inhibitory Concentration
Description: as §1

[12] = tested on: Klebsiella pneumoniae W75-4; experiment: In vitro MIC, agar dilution, Klebsiella pneumoniae W75-4; conditions: W754; Klebsiella pneumoniae W75-4; agar dilution, 35° C., 18 hours, nutrient agar; read-out: Minimal Inhibitory Concentration
Description: as §1

[13] = tested on: Klebsiella pneumoniae UR76-1; experiment: In vitro MIC, agar dilution, Klebsiella pneumoniae UR76-1; conditions: UR761; Klebsiella pneumoniae UR76-1; agar dilution, 35° C., 18 hours, nutrient agar; read-out: Minimal Inhibitory Concentration
Description: as §1

[14] = tested on: Pseudomonas aeruginosa UCS 76-13; experiment: In vitro MIC, agar dilution, Pseudomonas aeruginosa UCS 76-13; conditions: UCS7613; Pseudomonas aeruginosa UCS 76-13; agar dilution, 35° C., 18 hours, nutrient agar; read-out: Minimal Inhibitory Concentration
Description: as §1

Serratia K101 = experiment: In vitro MIC, agar dilution, Serratia K101; conditions: Serratia K101; agar dilution, 35° C., 18 hours, nutrient agar; read-out: Minimal Inhibitory Concentration
Description: as §1

[15] = ESS2231, Escherichia coli ESS22-31, agar dilution, 35° C., 18 hours, nutrient agar
[16] = Pseudomonas aeruginosa G236, agar dilution, 35° C., 18 hours, nutrient agar
[17] = MA751, Enterobacter cloacae MA75-1, agar dilution, 35° C., 18 hours, nutrient agar

Row | Compound | MIC (Serratia marcens K77-1) | MIC [1] | MIC [4] | MIC (Enterococcus SM77-15) | MIC (Escherichia coli 311) | MIC (Proteus rettgeri N76-1) | MIC [5] | MIC [6] | MIC [7] | MIC (Klebsiella pneumoniae AD) | MIC [8] | MIC [9] | MIC (Escherichia coli W75-1) | MIC (Serratia marcens QHC77-2) | MIC (Proteus morganii K72) | MIC [10] | MIC (Escherichia coli OSU75-1) | MIC [12] | MIC [13] | MIC [14] | further results
1 | CCN1CCN(C(=O)NC(C(=O)NC2C(=O)N3C(C(=O)O)=C(CSc4n[nH]c(-n5cccn5)n4)CS[C@H]23)c2ccc(O)cc2)C(=O)C1=O (some centres unmarked) [Compound VI, 7-[2-(4-Ethyl-2,3-dioxo-1-piperazinecarboxamido)-2-(p-hydroxyphenyl)acetamido]-3-[5-(1-pyrazolyl)-1,2,4-triazol-3-ylthiomethyl]-3-cephem-4-carboxylic acid] | > 128 µg/mL | 64 µg/mL (≈ 91.9 µM) | 64 µg/mL (≈ 91.9 µM) | > 128 µg/mL | 1 µg/mL (≈ 1.44 µM) | 16 µg/mL (≈ 23 µM) | 4 µg/mL (≈ 5.74 µM) | 4 µg/mL (≈ 5.74 µM) | 16 µg/mL (≈ 23 µM) | 0.5 µg/mL (≈ 0.718 µM) | 2 µg/mL (≈ 2.87 µM) | 0.5 µg/mL (≈ 0.718 µM) | 2 µg/mL (≈ 2.87 µM) | > 128 µg/mL | 32 µg/mL (≈ 45.9 µM) | 8 µg/mL (≈ 11.5 µM) | 2 µg/mL (≈ 2.87 µM) | 32 µg/mL (≈ 45.9 µM) | 16 µg/mL (≈ 23 µM) | 64 µg/mL (≈ 91.9 µM) | MIC ([2]; Enterobacter cloacae, MA751, 18 h): > 128 µg/mL; MIC [3, 15]: ≤ 0.12 µg/mL; MIC (Proteus vulgaris N74-1): 16 µg/mL (≈ 23 µM); MIC [11, 16]: 32 µg/mL (≈ 45.9 µM); MIC (Serratia K101): 128 µg/mL (≈ 184 µM)
2 | Nn1c(SCC2=C(C(=O)O)N3C(=O)C(NC(=O)Cc4cccs4)[C@H]3SC2)nnc1-n1cccn1 (some centres unmarked) [Compound IV, 7[2-(2-Thienyl)acetamido]-3-[4-amino-5-(1-pyrazolyl)-1,2,4-triazol-3-ylthiomethyl]-3-cephem-4-carboxylic acid] | > 128 µg/mL | > 128 µg/mL | > 128 µg/mL | 32 µg/mL (≈ 61.7 µM) | 4 µg/mL (≈ 7.71 µM) | > 128 µg/mL | 2 µg/mL (≈ 3.86 µM) | ≤ 0.12 µg/mL | > 128 µg/mL | 4 µg/mL (≈ 7.71 µM) | 2 µg/mL (≈ 3.86 µM) | 1 µg/mL (≈ 1.93 µM) | 8 µg/mL (≈ 15.4 µM) | > 128 µg/mL | > 128 µg/mL | 0.25 µg/mL (≈ 0.482 µM) | 4 µg/mL (≈ 7.71 µM) | 16 µg/mL (≈ 30.9 µM) | > 128 µg/mL | > 128 µg/mL | MIC [2, 17]: > 128 µg/mL; MIC [3, 15]: ≤ 0.06 µg/mL; MIC ([11]; Pseudomonas aeruginosa, G236, 18 h): > 128 µg/mL; MIC (Serratia K101): > 128 µg/mL
3 | N[C@@H](C(=O)NC1C(=O)N2C(C(=O)O)=C(CSc3n[nH]c(-n4cccn4)n3)CS[C@H]12)c1ccccc1.O=C(O)C(F)(F)F (stereo partly drawn) [Compound IX, 7-(D-2-Amino-2-phenylacetamido)-3-[5-(1-pyrazolyl)-1,2,4-triazol-3-ylthiomethyl]-3-cephem-4-carboxylic acid, trifluoroacetate salt] | > 128 µg/mL | > 128 µg/mL | > 128 µg/mL | > 128 µg/mL | 16 µg/mL | > 128 µg/mL | 32 µg/mL | 4 µg/mL | > 128 µg/mL | 8 µg/mL | 16 µg/mL | 16 µg/mL | 16 µg/mL | > 128 µg/mL | > 128 µg/mL | 1 µg/mL | 16 µg/mL | 32 µg/mL | > 128 µg/mL | > 128 µg/mL | MIC [2, 17]: > 128 µg/mL; MIC ([3]; Escherichia coli, ESS2231, 18 h): ≤ 0.12 µg/mL; MIC (Proteus vulgaris N74-1): > 128 µg/mL; MIC [11, 16]: > 128 µg/mL; MIC (Serratia K101): > 128 µg/mL
